# Patent US11123320B2, “Prophylactic or therapeutic agent for hyperaciive bladder” (SBI PHARMACEUTICALS CO., LTD., priority 2017, dated 2021)
# Experiments:
# MDA (Malondialdehyde) = test: MDA assay in rat bladder tissue; type: in vivo; conditions: male SHR, oral ALA with sodium ferrous citrate as in Example 1; vs control group
# Protocol: ALA administration to a subject and the change in the amount of MDA expression was investigated. MDA is one of lipid peroxidative degradation products, and is known as a major marker of lipid peroxidation.
# (§1) Preparation of the experimental and control groups was carried out with the method and conditions similar to the method described in Example 1.
# (§2) The bladder tissue of experimental and control groups were processed with the procedure below, and used as samples.
# 1. Subject to biomasher with 400 μl of cold assay buffer.
# 2. Centrifuge at 15000 rpm for 5 min at 4° C. After centrifugation, add 300 μl of buffer to the supernatant and store on ice.
# 3. Correct with protein concentration.
# ELISA assay was performed with Malondialdehyde Assay kit (NWK-MDA01) according to the protocol provided by the manufacturer.
# VEGF = VEGF ELISA in rat bladder tissue; type: in vivo; conditions: male SHR, oral ALA with sodium ferrous citrate as in Example 1, vs control group
# Protocol: ALA administration to a subject and the change in the amount of VEGF expression was investigated. VEGF is a vascular endothelial growth factor, and is used as a marker of bladder vascular endothelial dysfunction.
# as §1, §2
# 1. Wash 100 mg of tissue with 1×[…].
# 2. Homogenize with 500 μl of 1×PBS.
# (§3) 3. Store overnight at −20° C.
# (§4) 4. Carry out freeze-thawing to destroy cell membrane, and centrifuge at 5000 G for 5 min at 4° C.
# (§5) 5. Dispense and store at −20° C. or −80° C.
# (§6) 6. After thawing, centrifuge again and employ for assay.
# ELISA assay was performed with Rat VEGF ELISA kit (CUSABIO CSB-E04757r) according to the protocol provided by the manufacturer.
# [1] = test system: bladder blood flow of SHR rats; test: Bladder blood flow measurement (hydrogen clearance method); type: in vivo, rat; conditions: male SHR after 6 weeks oral ALA 10 or 100 mg/kg with sodium ferrous citrate, vs control
# Protocol: After said cystometry, bladder blood flow measurement (hydrogen clearance method) was performed according to the procedures below. (1) A silver chloride plate which is an indifferent electrode is buried under the precordium of each rat. (2) Wire platinum electrodes are incised into the bladder wall (three places in the bladder wall, data is collected 3 times each). (3) Blood flow is measured using UH-METER. Specifically, a hydrogen tank is opened to 0.3 L/min, and 100% hydrogen is directly inhaled with a funnel. Hydrogen is given until peaked, and hydrogen clearance curve is measured with the PowerLab system. The timepoint when the hydrogen clearance curve begins to drop is set at 0 second, and recording was performed for about 180 seconds. (4) The blood flow amount was calculated from the regression curve. * Half-life (T½) is determined from the regression curve Y=B−AX.
# Nrf2 = Nrf2 ELISA in rat bladder tissue; type: in vivo; conditions: male SHR, oral ALA with sodium ferrous citrate as in Example 1, vs control group
# Protocol: ALA administration to a subject and the change in the amount of Nrf2 expression was investigated. Nrf2 is one of transcription factors that regulate the expression of antioxidant enzymes or detoxication metabolism enzymes to control oxidative stress, and is employed as an oxidative stress marker.
# as §1, §2
# 1. Wash excess blood with PBS.
# 3. Place 600 μl of PBS on ice in a biomasher to finely mince tissue.
# 4. Perform ultrasonic wave treatment or freeze-thawing (−20° C./room temperature) 3 times.
# 5. Centrifuge at 5000 G for 5 minutes.
# 6. Move the supernatant to a new tube (measure protein concentration).
# ELISA assay was performed with Rat NFE2L2/NRF2 ELISA kit (LSBio LS-F12145) according to the protocol provided by the manufacturer.
# [2] = test system: overactive bladder model rats (SHR); test: Urination kinetics measurement with a metabolic cage; type: in vivo, rat; conditions: male SHR, vs saline control
# Protocol: Twelve weeks old male SHR (spontaneously hypertension rata) were employed as experimental rats, and the experimental groups were divided into groups I-III by ALA administration conditions below. For experimental group II, ALA and sodium ferrous citrate were orally administered on experiment start day. The dosage of ALA was set at 10 mg/kg of body weight and sodium ferrous citrate was set at 15.7 mg/kg of body weight. On the other hand, for experimental group III, ALA was set at 100 mg/kg of body weight and sodium ferrous citrate was set at 157 mg/kg of body weight. Note that for control group I, saline only at an amount equal to ALA was administered instead of ALA and sodium ferrous citrate.
# For control group I, saline was orally administered every day from experiment start day (12 weeks old) to week 6 (18 weeks old).
# For experimental groups II and III, ALA and sodium ferrous citrate was orally administered every day from experiment start day (12 weeks old) to week 6 (18 weeks old).
# For each experimental group, urination kinetics measurement with a metabolic cage was performed. Specifically, measurements were performed at 12 weeks old (before ALA administration) and at 18 weeks old (after ALA administration) to measure single urination amount, 24-hour urination amount, and water drinking amount. Here, the method based on Yono et al., Life Sci. 2007 Jun. 27; 81(3):218-222 (non-anesthetized, unrestrained, and day-and-night continuous measurement method of mouse urination function) was adopted as the measurement method with a metabolic cage. Note that before measurement of urination kinetics, body weight, blood pressure, and heart rate were measured as a caution in addition to the urination amount and water drinking amount. Moreover, when measuring urination kinetics, total number of urination was also measured.
# NGF = NGF ELISA in rat bladder tissue; type: in vivo; conditions: male SHR, oral ALA with sodium ferrous citrate as in Example 1, vs control group
# Protocol: ALA administration to a subject and the change in the amount of NGF expression was investigated. Since micturition reflex is enhanced when NGF increases in the bladder thus resulting in overactive bladder, NGF is employed as a lower urinary tract dysfunction marker.
# as §1, §2
# 1. Wash 100 mg of tissue with 1×PBS.
# 2. Homogenize with 1 ml of 1×PBS.
# as §3, §4, §5, §6
# ELISA assay was performed with Rat NGF ELISA kit (CUSABIO CSB-E24685r) according to the protocol provided by the manufacturer.
# [3] = test system: detrusor muscle / bladder of SHR rats; test: Cystometry (overactive status of the detrusor muscle); type: in vivo, rat; conditions: 18 weeks old male SHR under urethane anesthesia, after 6 weeks oral ALA 10 or 100 mg/kg with sodium ferrous citrate; vs group without ALA
# Protocol: Note that cystometry verifies the overactive status of the detrusor muscle, and is established as a method for examining overactive bladder. (1) 18 weeks old male SHR/Hos rats and Wistar/ST rat are subjected to general anesthesia by urethane (1.0 g/kg, i.p.). (2) Each rat is laid down and the extremities are fixed with packaging tape. Laparotomy is then performed, and the bladder is pressed to allow urination. Absorbent cotton with saline is placed on top to prevent drying and left for 30 minutes. (3) A catheter for cystometry is inserted into the bladder of each rat. Here, the catheter is joined to a three-way stopcock, and one end is connected to a syringe pump to continuously infuse saline into the bladder at a constant speed (12 ml/hr). The other end is connected to a pressure transducer to monitor and amplify with a pressure amplifier, and incorporated into a personal computer via Powerlab system for recording. (4) Saline is then infused and left for about 30 minutes until stable. (5) Watch the wave form to collect single urine into a 1.5 ml tube, and the weight of urine is measured. (6) Residual urine of each rat is collected and the amount is measured. (7) Peaks at similar interval and height are consecutively taken 6 times (about 1 hour).
# [4] = ALA 10 or 100 mg/kg with sodium ferrous citrate orally every day for 6 weeks
structure (smiles),measurement,setting,value
"NCC(=O)CCC(=O)O [ALA, 5-aminolevulinic acid]",amount of MDA expression in bladder tissue,MDA (Malondialdehyde),significantly reduced
same,amount of VEGF expression in bladder tissue,VEGF,significantly reduced
same,bladder blood flow amount,[1],tendency of bladder blood flow to increase ALA dosage-dependently
same,amount of Nrf2 expression in bladder tissue,Nrf2,significantly reduced
same,increase in single urination amount compared to the control group,"[2]; ALA 10 or 100 mg/kg with sodium ferrous citrate 15.7 or 157 mg/kg orally every day for 6 weeks, measured at 18 weeks old",approximately 30%
same,24-hour urination amount compared to the control group,[2]; [4],increase in 24-hour urination amount
same,24-hour water drinking amount,[2]; [4],increase in water drinking amount
same,amount of NGF expression in bladder tissue,NGF,significantly reduced
same,urination interval (cystometry),[3],extension of urination interval
